Earlier results in PubChem BioAssay AID1259409 (Chemical Carcinogenesis Research Information System (CCRIS), 2018).

System: rodent chemically induced tumor inhibition, incidence and multiplicity
Experiment: CCRIS tumor inhibitor studies
Conditions: Route [Inhibitor]: ORAL, Species: HAMSTER

Structure (SMILES): CC1=C(/C=C/C(C)=C/C=C/C(C)=C/C(=O)Nc2ccc(O)cc2)C(C)(C)CCC1
- tumour outcome (control, treated, inhibition, significance) (Carcinogen: N-NITROSOBIS(2-OXOPROPLYL)AMINE [60599-38-4], DL-ETHIONINE [67-21-0], L-METHIONINE [63-68-3], Carcinogen: N-NITROSOBIS(2-OXOPROPLYL)AMINE [60599-38-4], DL-ETHIONINE [67-21-0], L-METHIONINE [63-68-3], Dose [Inhibitor]: 0, 0.01% IN DIET FOR 55 D BEGINNING ON DAY 50, 1 WK POST LAST CARCINOGEN DOSE (STUDY DURATION: 105 D), Target Tissue: Type of Lesion: PANCREATIC DUCT, CARCINOMA, Dose [Carcinogen]: 50 MG/KG BOP ONCE ON DAY 0, THEN 20 MG/KG TWICE ON DAYS 18 AND 32, 500 MG/KG DL-ETHIONINE 1X/D FOR 4 D BEGINNING ON DAY, Dose [Carcinogen]: 50 MG/KG BOP ONCE ON DAY 0, THEN 20 MG/KG TWICE ON DAYS 18 AND 32, 500 MG/KG DL-ETHIONINE 1X/D FOR 4 D BEGINNING ON DAY, Promoter: CHOLINE-DEFICIENT DIET): 17/17 (100%), 17/17 (100%), 0%, not significant
- tumour outcome (control, treated, inhibition, significance) (Carcinogen: N-NITROSOBIS(2-OXOPROPLYL)AMINE [60599-38-4], DL-ETHIONINE [67-21-0], L-METHIONINE [63-68-3], Carcinogen: N-NITROSOBIS(2-OXOPROPLYL)AMINE [60599-38-4], DL-ETHIONINE [67-21-0], L-METHIONINE [63-68-3], Dose [Inhibitor]: 0, 0.04% IN DIET FOR 55 D BEGINNING ON DAY 50, 1 WK POST LAST CARCINOGEN DOSE (STUDY DURATION: 105 D), Target Tissue: Type of Lesion: LIVER: INTRAHEPATIC CHOLANGIOCARCINOMA, Dose [Carcinogen]: 50 MG/KG BOP ONCE ON DAY 0, THEN 20 MG/KG TWICE ON DAYS 18 AND 32, 500 MG/KG DL-ETHIONINE 1X/D FOR 4 D BEGINNING ON DAY, Dose [Carcinogen]: 50 MG/KG BOP ONCE ON DAY 0, THEN 20 MG/KG TWICE ON DAYS 18 AND 32, 500 MG/KG DL-ETHIONINE 1X/D FOR 4 D BEGINNING ON DAY, Promoter: CHOLINE-DEFICIENT DIET): 7/17 (41%), 14/15 (93%), -127%, p<0.01
- tumour outcome (control, treated, inhibition, significance) (Carcinogen: N-NITROSOBIS(2-OXOPROPLYL)AMINE [60599-38-4], DL-ETHIONINE [67-21-0], L-METHIONINE [63-68-3], Carcinogen: N-NITROSOBIS(2-OXOPROPLYL)AMINE [60599-38-4], DL-ETHIONINE [67-21-0], L-METHIONINE [63-68-3], Dose [Inhibitor]: 0, 0.04% IN DIET FOR 55 D BEGINNING ON DAY 50, 1 WK POST LAST CARCINOGEN DOSE (STUDY DURATION: 105 D), Target Tissue: Type of Lesion: PANCREATIC DUCT, CARCINOMA, Dose [Carcinogen]: 50 MG/KG BOP ONCE ON DAY 0, THEN 20 MG/KG TWICE ON DAYS 18 AND 32, 500 MG/KG DL-ETHIONINE 1X/D FOR 4 D BEGINNING ON DAY, Dose [Carcinogen]: 50 MG/KG BOP ONCE ON DAY 0, THEN 20 MG/KG TWICE ON DAYS 18 AND 32, 500 MG/KG DL-ETHIONINE 1X/D FOR 4 D BEGINNING ON DAY, Promoter: CHOLINE-DEFICIENT DIET): 17/17 (100%), 15/15 (100%), 0%, not significant
- tumour outcome (control, treated, inhibition, significance) (Carcinogen: N-NITROSOBIS(2-OXYPROPYL)AMINE, 60599-38-4, Dose [Inhibitor]: 0.05, 0.1 OR 0.2 MILLIMOLAR/KG DIET FOR 32 WK STARTING 1 WK AFTER THE CARCINOGEN DOSE (STUDY DURATION: 33 WK), Strain/Sex: SYRIAN/FEMALE, Target Tissue: Type of Lesion: COMMON DUCT: ADENOMA, Dose [Carcinogen]: 40 MG/KG ONCE, Promoter: NONE USED): 4/10 (40%), 26/30 (87%), -118%, p<0.025
- tumour outcome (control, treated, inhibition, significance) (Carcinogen: N-NITROSOBIS(2-OXYPROPYL)AMINE, 60599-38-4, Dose [Inhibitor]: 0.05, 0.1 OR 0.2 MILLIMOLAR/KG DIET FOR 32 WK STARTING 1 WK AFTER THE CARCINOGEN DOSE (STUDY DURATION: 33 WK), Strain/Sex: SYRIAN/FEMALE, Target Tissue: Type of Lesion: GALL BLADDER: ADENOMA, Dose [Carcinogen]: 40 MG/KG ONCE, Promoter: NONE USED): 6/10 (60%), 29/30 (97%), -62%, not significant
- tumour outcome (control, treated, inhibition, significance) (Carcinogen: N-NITROSOBIS(2-OXYPROPYL)AMINE, 60599-38-4, Dose [Inhibitor]: 0.05, 0.1 OR 0.2 MILLIMOLAR/KG DIET FOR 32 WK STARTING 1 WK AFTER THE CARCINOGEN DOSE (STUDY DURATION: 33 WK), Strain/Sex: SYRIAN/FEMALE, Target Tissue: Type of Lesion: LIVER: ADENOMA, Dose [Carcinogen]: 40 MG/KG ONCE, Promoter: NONE USED): 6/10 (60%), 10/30 (33%), 45%, not significant
- tumour outcome (control, treated, inhibition, significance) (Carcinogen: N-NITROSOBIS(2-OXYPROPYL)AMINE, 60599-38-4, Dose [Inhibitor]: 0.05, 0.1 OR 0.2 MILLIMOLAR/KG DIET FOR 32 WK STARTING 1 WK AFTER THE CARCINOGEN DOSE (STUDY DURATION: 33 WK), Strain/Sex: SYRIAN/FEMALE, Target Tissue: Type of Lesion: LUNG: ADENOMA, Dose [Carcinogen]: 40 MG/KG, ONCE, ONE WK PRIOR TO START OF AGENT TREATMENT, Promoter: NONE USED): 3/10 (30%), 18/30 (60%), -100%, not significant
- tumour outcome (control, treated, inhibition, significance) (Carcinogen: N-NITROSOBIS(2-OXYPROPYL)AMINE, 60599-38-4, Dose [Inhibitor]: 0.05, 0.1 OR 0.2 MILLIMOLAR/KG DIET FOR 32 WK STARTING 1 WK AFTER THE CARCINOGEN DOSE (STUDY DURATION: 33 WK), Strain/Sex: SYRIAN/FEMALE, Target Tissue: Type of Lesion: PANCREAS: ADENOMA, Dose [Carcinogen]: 40 MG/KG ONCE, Promoter: NONE USED): 10/10 (100%), 30/30 (100%), 0%, not significant
- tumour outcome (control, treated, inhibition, significance) (Carcinogen: N-NITROSOBIS(2-OXYPROPYL)AMINE, 60599-38-4, Dose [Inhibitor]: 0.05, 0.1 OR 0.2 MILLIMOLAR/KG DIET FOR 32 WK STARTING 1 WK AFTER THE CARCINOGEN DOSE (STUDY DURATION: 33 WK), Strain/Sex: SYRIAN/FEMALE, Target Tissue: Type of Lesion: PANCREAS: CARCINOMA, Dose [Carcinogen]: 40 MG/KG ONCE, Promoter: NONE USED): 4/10 (40%), 16/30 (53%), -33%, not significant
- tumour outcome (control, treated, inhibition, significance) (Carcinogen: N-NITROSOBIS(2-OXYPROPYL)AMINE, 60599-38-4, Dose [Inhibitor]: 0.05, 0.1 OR 0.2 MILLIMOLAR/KG DIET FOR 32 WK STARTING 1 WK AFTER THE CARCINOGEN DOSE (STUDY DURATION: 33 WK), Strain/Sex: SYRIAN/MALE, Target Tissue: Type of Lesion: COMMON DUCT: ADENOMA, Dose [Carcinogen]: 40 MG/KG ONCE, Promoter: NONE USED): 4/12 (33%), 20/21 (95%), -188%, not significant
- tumour outcome (control, treated, inhibition, significance) (Carcinogen: N-NITROSOBIS(2-OXYPROPYL)AMINE, 60599-38-4, Dose [Inhibitor]: 0.05, 0.1 OR 0.2 MILLIMOLAR/KG DIET FOR 32 WK STARTING 1 WK AFTER THE CARCINOGEN DOSE (STUDY DURATION: 33 WK), Strain/Sex: SYRIAN/MALE, Target Tissue: Type of Lesion: GALL BLADDER: ADENOMA, Dose [Carcinogen]: 40 MG/KG ONCE, Promoter: NONE USED): 3/12 (25%), 20/21 (95%), -280%, not significant
- tumour outcome (control, treated, inhibition, significance) (Carcinogen: N-NITROSOBIS(2-OXYPROPYL)AMINE, 60599-38-4, Dose [Inhibitor]: 0.05, 0.1 OR 0.2 MILLIMOLAR/KG DIET FOR 32 WK STARTING 1 WK AFTER THE CARCINOGEN DOSE (STUDY DURATION: 33 WK), Strain/Sex: SYRIAN/MALE, Target Tissue: Type of Lesion: LIVER: ADENOMA, Dose [Carcinogen]: 40 MG/KG ONCE, Promoter: NONE USED): 6/12 (50%), 7/21 (33%), 34%, not significant
